Results from publication PMC12951562, “SH2scan: Mapping SH2 Domain-Ligand Binding Selectivity for Inhibitors and Degraders” (Journal of Medicinal Chemistry, 2026).
Where two headings read alike, the source gives them in different places. Non-standard residues stand in square brackets, D forms with d. Residues, ends and D or L forms follow the SMILES beside them. *: point of attachment. pY = N[C@@H](Cc1ccc(OP(=O)(O)O)cc1)C(=O)O; Caffeoyl = O=C(/C=C/c1ccc(O)c(O)c1)*

Experiments:
Assay in all cases: biochemical
Type in all cases: binding
SHIP2 = target: T1, SHIP2 (Homo sapiens, UniProt O15357); conditions: for remaining activity at 10 µM: read-out: percent of DMSO vehicle control
T1 construct: made in house; host or cells: HEK293 (transient transfection), unpurified extract
T1 sequence (O15357 1-1258): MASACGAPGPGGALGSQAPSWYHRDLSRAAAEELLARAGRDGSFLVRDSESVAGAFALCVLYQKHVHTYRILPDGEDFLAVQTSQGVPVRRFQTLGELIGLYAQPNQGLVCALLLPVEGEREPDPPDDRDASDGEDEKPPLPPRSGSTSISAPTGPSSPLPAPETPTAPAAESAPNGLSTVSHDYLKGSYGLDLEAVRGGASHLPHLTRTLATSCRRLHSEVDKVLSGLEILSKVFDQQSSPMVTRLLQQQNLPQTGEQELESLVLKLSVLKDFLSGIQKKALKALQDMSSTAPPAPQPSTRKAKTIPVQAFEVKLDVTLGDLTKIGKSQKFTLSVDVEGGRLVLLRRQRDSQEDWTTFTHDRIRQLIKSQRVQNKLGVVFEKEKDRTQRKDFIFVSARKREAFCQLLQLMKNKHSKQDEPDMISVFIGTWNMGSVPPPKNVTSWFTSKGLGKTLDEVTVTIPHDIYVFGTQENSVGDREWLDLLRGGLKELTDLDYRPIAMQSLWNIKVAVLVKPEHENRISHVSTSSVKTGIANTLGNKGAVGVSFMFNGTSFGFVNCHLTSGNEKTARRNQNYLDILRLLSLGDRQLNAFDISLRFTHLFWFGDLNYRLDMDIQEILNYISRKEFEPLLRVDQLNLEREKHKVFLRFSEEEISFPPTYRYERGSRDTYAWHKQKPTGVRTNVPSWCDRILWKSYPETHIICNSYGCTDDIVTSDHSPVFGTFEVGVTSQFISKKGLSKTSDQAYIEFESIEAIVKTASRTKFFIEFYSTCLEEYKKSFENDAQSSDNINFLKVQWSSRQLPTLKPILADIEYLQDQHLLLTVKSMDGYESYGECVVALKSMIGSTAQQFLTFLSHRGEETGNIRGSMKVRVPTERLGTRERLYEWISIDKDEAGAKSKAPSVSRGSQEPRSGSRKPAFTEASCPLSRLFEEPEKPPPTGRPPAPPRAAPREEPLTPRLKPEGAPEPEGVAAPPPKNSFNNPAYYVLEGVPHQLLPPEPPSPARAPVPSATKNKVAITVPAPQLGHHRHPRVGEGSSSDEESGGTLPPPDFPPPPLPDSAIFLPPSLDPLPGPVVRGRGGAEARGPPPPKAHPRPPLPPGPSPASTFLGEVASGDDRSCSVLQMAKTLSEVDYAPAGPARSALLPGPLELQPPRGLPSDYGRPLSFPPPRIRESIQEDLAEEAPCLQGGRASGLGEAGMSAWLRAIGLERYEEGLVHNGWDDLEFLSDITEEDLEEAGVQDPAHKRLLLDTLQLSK

GADS = target: T2, GADS (Homo sapiens, UniProt O75791); conditions: for percent of DMSO vehicle control at 10 µM / remaining activity at 10 µM: read-out: percent of DMSO vehicle control
T2 construct: the DNA-tagged SH2 domain concentrations used in this study were <0.1 nM; made in house; host or cells: HEK293 (transient transfection; unpurified extract)
T2 sequence (O75791 58-149 limits assumed): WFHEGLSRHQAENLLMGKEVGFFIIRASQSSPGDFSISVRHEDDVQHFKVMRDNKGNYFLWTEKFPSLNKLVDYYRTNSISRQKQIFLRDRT

SHC4 = target: T3, SHC4 (Homo sapiens, UniProt Q6S5L8); conditions: for remaining activity at 10 µM: read-out: percent of DMSO vehicle control
T3 construct: made in house; host or cells: HEK293 (transient transfection), unpurified extract
T3 sequence (Q6S5L8 1-630): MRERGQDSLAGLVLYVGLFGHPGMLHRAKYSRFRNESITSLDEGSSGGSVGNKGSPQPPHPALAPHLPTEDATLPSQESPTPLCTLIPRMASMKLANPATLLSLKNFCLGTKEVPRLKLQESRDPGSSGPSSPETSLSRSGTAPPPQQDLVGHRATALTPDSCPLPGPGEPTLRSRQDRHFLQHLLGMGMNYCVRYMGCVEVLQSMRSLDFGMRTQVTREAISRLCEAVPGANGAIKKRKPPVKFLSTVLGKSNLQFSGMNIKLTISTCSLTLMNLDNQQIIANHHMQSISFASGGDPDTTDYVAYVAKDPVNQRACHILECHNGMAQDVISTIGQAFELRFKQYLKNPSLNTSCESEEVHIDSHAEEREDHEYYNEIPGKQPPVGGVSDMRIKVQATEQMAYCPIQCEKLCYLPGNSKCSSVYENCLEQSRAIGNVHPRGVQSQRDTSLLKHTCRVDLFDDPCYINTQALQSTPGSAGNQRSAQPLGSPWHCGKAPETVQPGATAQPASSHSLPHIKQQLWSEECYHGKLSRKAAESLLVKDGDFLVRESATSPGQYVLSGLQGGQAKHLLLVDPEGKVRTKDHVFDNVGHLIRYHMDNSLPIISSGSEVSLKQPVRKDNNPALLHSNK

PIK3R1(SH2dom.C-term.) = target: T4, PIK3R1(SH2dom.C-term.) (Homo sapiens, UniProt P27986); conditions: for remaining activity at 10 µM: read-out: percent of DMSO vehicle control
T4 construct: SH2dom.C-term. denotes SH2 domain closest to C-terminus of protein; made in house; host or cells: HEK293 (transient transfection, unpurified extract)
T4 sequence (P27986 624-718 limits assumed): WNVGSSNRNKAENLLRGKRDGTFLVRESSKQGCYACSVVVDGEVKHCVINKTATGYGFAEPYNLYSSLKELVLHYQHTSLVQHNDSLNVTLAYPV

STAT5A = target: T5, STAT5A (Homo sapiens, UniProt P42229); conditions: for percent of DMSO vehicle control at 10 µM / remaining activity at 10 µM: read-out: percent of DMSO vehicle control
T5 construct: made in house; host or cells: HEK293 (transient transfection), unpurified extract
T5 sequence (P42229 1-794): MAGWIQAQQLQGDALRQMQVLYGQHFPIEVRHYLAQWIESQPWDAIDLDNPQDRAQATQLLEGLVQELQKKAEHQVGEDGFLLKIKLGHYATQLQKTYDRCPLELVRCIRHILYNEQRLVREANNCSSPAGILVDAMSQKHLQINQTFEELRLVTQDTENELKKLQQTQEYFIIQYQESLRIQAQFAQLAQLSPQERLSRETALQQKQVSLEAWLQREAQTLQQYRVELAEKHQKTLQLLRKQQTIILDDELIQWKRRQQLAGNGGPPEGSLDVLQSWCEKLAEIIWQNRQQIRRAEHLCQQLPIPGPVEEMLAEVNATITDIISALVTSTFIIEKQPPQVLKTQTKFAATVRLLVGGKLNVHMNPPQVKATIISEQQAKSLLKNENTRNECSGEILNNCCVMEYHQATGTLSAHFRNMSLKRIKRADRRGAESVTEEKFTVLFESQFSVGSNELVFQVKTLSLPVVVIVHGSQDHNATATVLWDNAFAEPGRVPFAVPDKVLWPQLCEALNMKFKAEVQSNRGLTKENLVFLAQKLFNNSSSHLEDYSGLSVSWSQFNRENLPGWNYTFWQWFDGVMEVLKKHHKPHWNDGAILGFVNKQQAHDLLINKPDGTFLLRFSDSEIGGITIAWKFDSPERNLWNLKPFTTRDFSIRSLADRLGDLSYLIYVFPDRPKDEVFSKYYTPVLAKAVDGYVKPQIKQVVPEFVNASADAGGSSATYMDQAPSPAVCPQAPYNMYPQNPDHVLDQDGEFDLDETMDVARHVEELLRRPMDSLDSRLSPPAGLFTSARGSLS

| Compound | remaining activity at 10 µM (SHIP2) [%] | percent of DMSO vehicle control at 10 µM (GADS) [%] | remaining activity at 10 µM (SHC4) [%] | remaining activity at 10 µM (PIK3R1(SH2dom.C-term.)) [%] | percent of DMSO vehicle control at 10 µM (STAT5A) [%] | remaining activity at 10 µM (SHIP2; primary screen, 10 μM) [%] | remaining activity at 10 µM (GADS; primary screen, 10 μM) [%] | remaining activity at 10 µM (SHC4; primary screen, 10 μM) [%] | remaining activity at 10 µM (PIK3R1(SH2dom.C-term.); primary screen, 10 μM) [%] | remaining activity at 10 µM (STAT5A; primary screen, 10 μM) [%] | other results |
| --- | --- | --- | --- | --- | --- | --- | --- | --- | --- | --- | --- |
| CC[C@H](C)[C@H](NC(=O)[C@H](CCC(=O)O)NC(=O)[C@H](CCC(=O)O)NC(=O)[C@H](Cc1ccc(OP(=O)(O)O)cc1)NC(C)=O)C(=O)N[C@@H](CCC(=O)O)C(N)=O [Ac-pYEEIE-NH2] (Ac-[pY]EEIE-NH2) | – | – | – | – | – | – | – | – | – | – | percent of DMSO vehicle control (SHIP2; primary screen, 10 μM): 62.5±0.8%; percent of DMSO vehicle control (GADS; primary screen, 10 μM): 115.5%; percent of DMSO vehicle control (SHC4; primary screen, 10 μM): 119.5%; percent of DMSO vehicle control (PIK3R1(SH2dom.C-term.); primary screen, 10 μM): 35.8±9.3%; percent of DMSO vehicle control (STAT5A; primary screen, 10 μM): 94.4±4.9% |
| CC(=O)N[C@@H](Cc1ccc(CP(=O)(O)O)cc1)C(=O)NC1(C(=O)N[C@@H](CC(N)=O)C(=O)NCCCc2c(O)ccc3ccccc23)CCCCC1 [CGP78850] | 106 ± 9.3 | 42 ± 2.5 | 108 ± 7.4 | 0 | 84.9 ± 21 | – | – | – | – | – | Kd (PIK3R1(SH2dom.C-term.)): 0.15 µM |
| CC[C@H](C)[C@H](NC(=O)[C@H](CCC(=O)O)NC(=O)[C@H](CCC(=O)O)NC(=O)[C@H](Cc1ccc(OP(=O)(O)O)cc1)NC(=O)/C=C/c1ccc(O)c(O)c1)C(=O)N[C@@H](CCC(=O)O)C(=O)O [Caffeic acid-pYEEIE] (Caffeoyl-[pY]EEIE-OH) | 0.2 | 94.8 | 0 | 0.2 ± 0.1 | 6.2 ± 0.4 | – | – | – | – | – | Kd (SHIP2): 0.23 ± 0.12 µM; Kd (SHC4): 0.039 ± 0.0061 µM; Kd (PIK3R1(SH2dom.C-term.)): 0.14 ± 0.1 µM; Kd (STAT5A): 4.02 ± 1.5 µM |
| O=C(CCl)Nc1cccc(CNC(=O)[C@H](Cc2ccc(OP(=O)(O)O)cc2)NC(=O)Cc2ccc(F)cc2)c1 [MN551] | – | – | – | – | – | 31.7 | 42.9 ± 0.8 | 93 ± 4.4 | 52.4 | 39 ± 0.8 | KD (SHIP2; dose-response): No Hit |
| NC(=O)CC[C@H](NC(=O)[C@@H]1CC[C@@H]2CCN(C(=O)CCCCCC#Cc3cccc4c3CN(C3CCC(=O)NC3=O)C4=O)C[C@H](NC(=O)c3cc4cc(C(F)(F)P(=O)(O)O)ccc4[nH]3)C(=O)N21)C(=O)NC(c1ccccc1)c1ccccc1 (some centres unmarked) [SD-36] | 67.3 ± 2.6 | 140.4 ± 0.2 | 100 ± 4.5 | 94.6 ± 6.5 | 3.4 ± 0.4 | – | – | – | – | – | Kd (STAT5A; dose-response): 1.6 ± 0.67 µM |
| CC(=O)N1CC[C@H]2CC[C@@H](C(=O)N[C@@H](CCC(N)=O)C(=O)NC(c3ccccc3)c3ccccc3)N2C(=O)[C@@H](NC(=O)c2cc3cc(C(F)(F)P(=O)(O)O)ccc3[nH]2)C1 [SI-109] | 121 | 276 | 136 | 128 | 101 | – | – | – | – | – | Kd (STAT5A): 7.03 ± 2.2 µM |
| C/C(=C\C(=O)N[C@H](C(=O)N1CCC[C@H]1C(=O)N(c1ccccc1)c1ccc(I)cc1)C(C)(C)C)c1ccc(OP(=O)(O)O)cc1 [STAT6-IN-1] | – | – | – | – | – | 6.9 ± 3.9 | 9.6 ± 0.1 | 77.1 ± 7.5 | 12.3 ± 0.1 | 0 | Kd (SHIP2; dose-response, read-out: KD): 2.03 ± 0.42 µM; Kd (GADS; dose-response, read-out: KD): 2.4 µM; Kd (PIK3R1(SH2dom.C-term.); dose-response, read-out: KD): 3.4 ± 1.1 µM; Kd (STAT5A; dose-response, read-out: KD): 0.0091 ± 0.0043 µM |
| CC(C)(C)[C@H](NC(=O)/C=C/c1ccc(OP(=O)(O)O)cc1)C(=O)N1CCC[C@H]1C(=O)N(c1ccccc1)c1ccc(I)cc1 [STAT6-IN-3] | – | – | – | – | – | 36.5 ± 29.6 | 76.5 ± 7.9 | 90.2 ± 12 | 32.6 ± 4.4 | 0 | KD (SHIP2; dose-response): No Hit; Kd (PIK3R1(SH2dom.C-term.); dose-response, read-out: KD): 3 ± 0.73 µM; Kd (STAT5A; dose-response, read-out: KD): 0.046 ± 0.019 µM |
| O=C(COc1ccc2cc(C(=O)Nc3ccccc3)ccc2c1)NCc1ccc(OP(=O)(O)O)c(OP(=O)(O)O)c1 [Stafib-1] | – | – | – | – | – | – | 51.9 ± 12.6 | 103 | 85.3 ± 16.8 | 22 ± 26.6 | – |
